Source: patent US5373020A, “Substituted 5-(2-((2-aryl-2-hydroxyethyl)amino)propyl)-1,3-benzodioxoles” (American Cyanamid Company, priority 1993, dated 1994)

How the values were obtained:
ob/ob mice [1] = experiment: Plasma glucose, compound in chow, obese mice; format: in vivo, mouse (C57 B1/6J ob/ob)
Description: (§1) The compounds of this invention were tested for hypoglycemic and anti-obesity activity according to the following procedure.
(§2) Obese mice (C57 B1/6J (ob/ob)), and/or diabetic mice (C57 B1/KsJ (db/db)) were obtained from Jackson Laboratories, Bar Harbor, Maine. Obese rats (fa/fa) were obtained from Charles River Laboratories, Wilmington, Mass. Obese mice were 8 weeks of age and diabetic mice were 9 weeks of age at the start of the test. Obese rats were 12-14 weeks of age at the start.
(§3) The test compounds were dissolved in methanol, mixed with powdered Purina rodent chow on a weight of compound to weight of chow basis and thoroughly dried.
(§4) Groups of 6 control mice or rats received vehicle (methanol) treated chow.
[…] Thus, a 40 g mouse, fed the test compound at a concentration of 0.02 percent of the diet, would receive a dose of 20 mg/kg/day if it ate 4 g of chow per day.
(§5) The mice or rats were weighed before the first treatment and once at the end of each indicated treatment period.
(§6) Blood samples were collected before the first treatment and once at the end of each indicated treatment period by retro-orbital puncture using heparinized capillary tubes.
(§7) Plasma was separated by centrifugation in a Beckman microfuge for 5 minutes. Plasma glucose concentrations were determined with the Beckman glucose analyzer which uses a glucose oxidase method.

db/db mice = experiment: Plasma glucose, compound in chow, diabetic mice; format: in vivo, mouse (C57 B1/KsJ db/db)
Description: as §1, §2, §3, §4
(§8) Groups of 6 test mice were fed ad libitum for up to seven weeks and food consumption was measured daily by weighing the food bins before and after the addition of fresh chow. Thus, a 40 g mouse, fed the test compound at a concentration of 0.02 percent of the diet, would receive a dose of 20 mg/kg/day if it ate 4 g of chow per day.
as §5, §6, §7

ob/ob mice [2] = experiment: Change in weight and food consumption, compound in chow, obese mice; format: in vivo, mouse (C57 B1/6J ob/ob)
Description: as §1, §2, §3, §4, §8, §5

β3-receptors = target: T1, β3-receptors (Rattus norvegicus, UniProt P26255); experiment: Stimulation of adipocyte lipolysis (β3-effect); format: cell-based; conditions: CL1 vs BRL1 (FIG. 1), CL2 vs BRL2 (FIG. 2)
T1 construct: Rat epididymal fat pads were excised and placed in 0.9% saline; from tissue; host or cells: collagenase-isolated adipocytes from rat epididymal fat pads
Description: (§9) β-Adrenergic receptors can be divided into β1, β2 and β3 -subtypes. Activation of β1 -receptors invokes increases in heart rate while activation of β2 -receptors stimulates glycogen breakdown in muscle and thereby prevents glycogen synthesis. Activation of β3 -receptors stimulates lipolysis (the breakdown of adipose tissue triglycerides to glycerol and free fatty acids), and thereby promotes the loss of fat mass.
The β3 -effect of the compounds was determined by their ability to stimulate adipocyte lipolysis. Rat epididymal fat pads were excised and placed in 0.9% saline. Four grams of tissue were transferred to a flask with 20 ml of aerated Krebs-Henseleit bicarbonate (KHB) buffer containing 3% fatty acid-free bovine serum albumin to which 75 mg of crude bacterial collagenase (Worthington) had been added. The tissue was incubated for about 45 minutes at 37° C. with gentle shaking. The cells were then washed three times with two volumes of KHB buffer, filtered through two layers of gauze, and brought to a final volume of 80 ml with KHB buffer. One ml aliquots of the cell suspension were added to plastic test tubes containing the appropriate additions of vehicle or compound. The cells were gassed for 1 minute with 95% O2 -5% CO2, capped, and incubated at 37° C. with continuous shaking for a total of 30 minutes. The reaction was stopped by adding 0.1 ml of 30% perchloric acid and 0.1 ml of chloroform. After centrifugation, 0.5 ml of supernatant was transferred to another test tube and neutralized with 0.04 ml of 3M K2 CO3 -0.5M triethanolamine. The amount-of glycerol generated from the hydrolysis of endogenous triglycerides was determined in a coupled-enzyme spectrophotometric assay. […] The test tubes were incubated for 40 minutes at 37° C. with constant shaking. […] This value was corrected for the amount of NADH generated in the absence of glycerol by incubating another aliquot of the neutralized extract with the same assay mixture but without glycerokinase.

β1-receptors = target: T2, β1-receptors (Cavia porcellus, UniProt H0W3H1); experiment: Effect on heart rate of isolated right atria (β1-effect); set-up: species or system guinea pig
T2 construct: from tissue; host or cells: guinea pig right atria
Description: as §9
Selectivity of a compound was determined using the following procedures. The effect on heart rate (β1 -effect) was determined using isolated right atria. […] The right atria were dissected and clamped at one end to a tissue holder and electrode assembly (MRA Corp.) and tied at the other end to a force-displacement transducer (Gould-Statham, Burco). The tissues were maintained at 32° C. in a 50 ml capacity glass chamber (MRA Corp.) preloaded with 0.5 g tension. Heart rate was monitored by a Grass polygragh. […] The increase in heart rate was calculated and considered to be the maximum response for that tissue. The tissues were then washed and allowed to equilibrate for 90 minutes. Cumulative concentration-response curves were then determined for each compound or vehicle. All responses were measured 5 minutes post-exposure.

β2-receptors = target: T3, β2-receptors (Mus musculus, UniProt P18762); experiment: Inhibition of insulin-mediated incorporation of 14C-glucose into glycogen in isolated soleus muscle (β2-effect)
T3 construct: Soleus muscle from mice were dissected; from tissue; host or cells: mouse soleus muscle
Description: as §9
The β2 -effect of the compounds was determined by their ability to inhibit the insulin-mediated incorporation of ^14 C-glucose into glycogen in isolated muscle. Soleus muscle from mice were dissected, tied at each end, and placed in a clamp to maintain tension. The clamped muscle was added to a vial that contained 2 ml of KHB with 1.5% bovine serum albumin, 0.3 mU/ml insulin, 5 mM (U^-14 C) glucose, and the appropriate additions of compound or vehicle. The vial was gassed with 95% O2 -5% CO2, capped, and the tissue incubated for one hour in a rotating water bath at 37° C. The muscle was then removed, rinsed in ice-cold saline, blotted and weighed. It was then added to 1 ml of 30% KOH containing 5 mg/ml of oyster glycogen, boiled for 10 minutes, and 0.4 ml of 2% Na2 SO4 and 3.2 ml of 100% ethanol added. After standing overnight at 4° C., the glycogen was pelleted by centrifugation, washed once with 66% ethanol, and repelleted. The pellet was dissolved in 1 ml of water and the amount of radioactivity present determined by liquid scintillation.

[3] = dose 0.002 % wt of chow, week 0 (before treatment)
[4] = dose 0.002 % wt of chow, week 1
[5] = dose 0.002 % wt of chow, week 4
[6] = dose 0.005 % wt of chow, week 0 (before treatment)
[7] = dose 0.005 % wt of chow, week 1
[8] = dose 0.005 % wt of chow, week 4
[9] = CL1 vs BRL1 (FIG. 1), CL2 vs BRL2 (FIG. 2)

T3 sequence (P18762 whole entry): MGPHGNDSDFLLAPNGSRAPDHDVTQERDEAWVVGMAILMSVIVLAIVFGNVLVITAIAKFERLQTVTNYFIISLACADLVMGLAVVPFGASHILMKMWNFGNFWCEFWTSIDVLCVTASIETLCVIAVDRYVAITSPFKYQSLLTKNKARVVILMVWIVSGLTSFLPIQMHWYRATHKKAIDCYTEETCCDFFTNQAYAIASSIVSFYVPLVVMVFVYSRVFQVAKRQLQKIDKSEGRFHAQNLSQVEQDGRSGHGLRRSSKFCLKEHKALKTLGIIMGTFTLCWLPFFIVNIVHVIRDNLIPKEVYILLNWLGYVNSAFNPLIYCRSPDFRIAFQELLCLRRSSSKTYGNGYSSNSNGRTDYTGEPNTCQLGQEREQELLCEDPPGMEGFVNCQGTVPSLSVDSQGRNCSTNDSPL
T2 sequence (H0W3H1 1-470): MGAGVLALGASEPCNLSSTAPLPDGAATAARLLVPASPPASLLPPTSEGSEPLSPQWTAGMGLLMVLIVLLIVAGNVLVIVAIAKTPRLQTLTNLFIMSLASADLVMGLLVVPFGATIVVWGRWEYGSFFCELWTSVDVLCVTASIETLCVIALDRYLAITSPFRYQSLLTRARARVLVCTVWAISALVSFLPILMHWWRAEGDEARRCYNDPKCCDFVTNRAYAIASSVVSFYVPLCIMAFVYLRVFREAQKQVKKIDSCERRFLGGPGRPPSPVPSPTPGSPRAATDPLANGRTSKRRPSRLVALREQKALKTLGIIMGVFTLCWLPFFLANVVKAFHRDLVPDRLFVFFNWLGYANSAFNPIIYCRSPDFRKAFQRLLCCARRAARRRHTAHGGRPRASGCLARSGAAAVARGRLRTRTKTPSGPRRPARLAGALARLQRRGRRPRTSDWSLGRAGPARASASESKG
T1 sequence (P26255 whole entry): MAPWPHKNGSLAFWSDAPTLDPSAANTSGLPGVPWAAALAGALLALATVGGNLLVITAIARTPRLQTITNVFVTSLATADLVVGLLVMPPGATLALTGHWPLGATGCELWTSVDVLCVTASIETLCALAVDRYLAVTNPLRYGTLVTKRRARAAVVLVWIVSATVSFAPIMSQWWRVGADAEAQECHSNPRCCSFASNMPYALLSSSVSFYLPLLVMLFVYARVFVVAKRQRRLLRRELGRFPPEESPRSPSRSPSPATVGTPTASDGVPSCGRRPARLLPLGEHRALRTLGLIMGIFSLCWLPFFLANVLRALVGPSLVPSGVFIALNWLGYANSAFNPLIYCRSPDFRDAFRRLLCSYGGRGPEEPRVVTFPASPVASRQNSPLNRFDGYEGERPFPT

C[C@H](Cc1ccc2c(c1)OC(C(=O)[O-])(C(=O)[O-])O2)NC[C@H](O)c1cccc(Cl)c1.[Na+].[Na+] (stereo in doubt) [CL2, (R*,R*)-(±)-5(2-((2-(3-chlorophenyl)-2-hydroxyethyl)amino)propyl)-1,3-benzodioxole-2,2-dicarboxylic acid, disodium salt]
Plasma Glucose Levels (ob/ob mice [1]; dose 0.0005 % wt of chow, week 0 (before treatment)): 218 mg/100 ml
Plasma Glucose Levels (ob/ob mice [1]; dose 0.0005 % wt of chow, week 1): 193 mg/100 ml
Plasma Glucose Levels (ob/ob mice [1]; dose 0.0005 % wt of chow, week 4): 240 mg/100 ml
Plasma Glucose Levels (ob/ob mice [1]; [3]): 220 mg/100 ml
Plasma Glucose Levels (ob/ob mice [1]; [4]): 162 mg/100 ml
Plasma Glucose Levels (ob/ob mice [1]; [5]): 197 mg/100 ml
Plasma Glucose Levels (ob/ob mice [1]; [6]): 220 mg/100 ml
Plasma Glucose Levels (ob/ob mice [1]; [7]): 145 mg/100 ml
Plasma Glucose Levels (ob/ob mice [1]; [8]): 165 mg/100 ml
Plasma Glucose Levels (db/db mice; [3]): 453 mg/100 ml
Plasma Glucose Levels (db/db mice; [4]): 236 mg/100 ml
Plasma Glucose Levels (db/db mice; dose 0.002 % wt of chow, week 5): 190 mg/100 ml
Plasma Glucose Levels (db/db mice; dose 0.002 % wt of chow, week 7): 25 mg/100 ml
Plasma Glucose Levels (db/db mice; [6]): 452 mg/100 ml
Plasma Glucose Levels (db/db mice; [7]): 155 mg/100 ml
Plasma Glucose Levels (db/db mice; dose 0.005 % wt of chow, week 5): 145 mg/100 ml
Plasma Glucose Levels (db/db mice; dose 0.005 % wt of chow, week 7): 16 mg/100 ml
Average Daily Food Consumption (ob/ob mice [2]; dose 0.002 % wt of chow): 5.2 g/animal
Change in weight (ob/ob mice [2]; [4]): 1.6 grams
Change in weight (ob/ob mice [2]; dose 0.002 % wt of chow, week 2): 4.1 grams
Change in weight (ob/ob mice [2]; dose 0.002 % wt of chow, week 3): 4.7 grams
Change in weight (ob/ob mice [2]; [5]): 7.3 grams
Average Daily Food Consumption (ob/ob mice [2]; dose 0.005 % wt of chow): 5.9 g/animal
Change in weight (ob/ob mice [2]; [7]): 0.2 grams
Change in weight (ob/ob mice [2]; dose 0.005 % wt of chow, week 2): 1.6 grams
Change in weight (ob/ob mice [2]; dose 0.005 % wt of chow, week 3): 2.4 grams
Change in weight (ob/ob mice [2]; [8]): 4.7 grams
β3 potency in comparison (β3-receptors): slightly greater β3 potency than does BRL2
EC50 (β1-receptors): > 1000 µM
β1 activity (β1-receptors; [9]): no measurable β1 activity
EC50 (β2-receptors): > 100 µM
β2 activity (β2-receptors; [9]): only minimal β2 activity at 1×10^-4 M
